Assay results as given in patent US12054562B2, “Cell-permeable inhibitory agent and methods of use thereof in treatment of cognitive and mood disorders” (priority 2015, dated 2024).

How the values were obtained:
[1] = molecular target: T1, α2 subunit containing GABAA receptors (Mus musculus, UniProt P26048); test: Co-IP and WB, gephyrin and α2 subunit containing GABAA receptors; type: binding; conditions: immunoprecipitates from Example 1, hippocampal tissue
T1 construct: α1 and α2 subunit containing GABAA receptors in the hippocampal tissue; from tissue; host or cells: hippocampus of adult mice
T1 sequence (P26048 29-451): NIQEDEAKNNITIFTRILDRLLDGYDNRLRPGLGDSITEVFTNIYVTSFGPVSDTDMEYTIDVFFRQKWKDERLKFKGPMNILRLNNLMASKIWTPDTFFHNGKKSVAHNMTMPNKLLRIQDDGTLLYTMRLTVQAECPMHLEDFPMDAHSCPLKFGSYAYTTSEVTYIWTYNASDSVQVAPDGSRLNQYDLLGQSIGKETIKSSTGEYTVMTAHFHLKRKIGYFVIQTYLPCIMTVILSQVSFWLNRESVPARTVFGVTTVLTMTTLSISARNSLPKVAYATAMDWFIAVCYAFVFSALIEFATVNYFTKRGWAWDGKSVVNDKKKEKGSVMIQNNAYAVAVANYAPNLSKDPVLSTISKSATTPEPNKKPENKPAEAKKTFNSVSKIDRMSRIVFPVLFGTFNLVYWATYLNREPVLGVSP

[2] = system: GABAA receptor-mediated tonic current in hippocampal neurons; test: Whole-cell voltage-clamp recordings of tonic current in astrocyte-neuron co-cultures; type: cell-based, mouse; conditions: co-treatment with etomidate 1 μM; recordings 24 h later
[3] = molecular target: T2, α1 subunit containing GABAA receptors (Mus musculus, UniProt P62812); test: Co-IP and WB, gephyrin and α1 subunit containing GABAA receptors; type: binding; conditions: immunoprecipitates from Example 1, hippocampal tissue
T2 construct: α1 and α2 subunit containing GABAA receptors in the hippocampal tissue; from tissue; host or cells: hippocampus of adult mice
T2 sequence (P62812 28-455): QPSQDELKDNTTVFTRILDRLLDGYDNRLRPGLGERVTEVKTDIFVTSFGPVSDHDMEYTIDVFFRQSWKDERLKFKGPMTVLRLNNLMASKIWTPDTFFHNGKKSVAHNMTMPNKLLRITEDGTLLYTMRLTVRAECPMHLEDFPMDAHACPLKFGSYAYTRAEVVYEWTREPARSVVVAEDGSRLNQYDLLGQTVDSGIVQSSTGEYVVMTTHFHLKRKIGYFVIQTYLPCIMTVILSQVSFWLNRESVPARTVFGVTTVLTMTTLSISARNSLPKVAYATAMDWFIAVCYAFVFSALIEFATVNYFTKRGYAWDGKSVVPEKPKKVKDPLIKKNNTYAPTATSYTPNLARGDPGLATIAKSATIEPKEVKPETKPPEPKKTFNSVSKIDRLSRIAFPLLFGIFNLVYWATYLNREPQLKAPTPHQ

mice = conditions: mouse, in vivo
Description: In the present study, mice were handled two times a day, 5 min each before start of behavioral experiments. Object recognition was assessed in a circle opaque chamber with the diameter of 38.5 cm in a regular lit room. Each mouse was habituated to the chamber for 5 min since day 3. During the training phase, the mouse was allowed to explore two identical objects for 5 min. The mouse was then returned to its home cage for a retention period of 1 h. The mouse was reintroduced to the training context and presented with one familiar object and one novel object for 5 min. Movement and interaction with the objects was recorded with a video camera that was mounted above the chamber. The exploratory behavior and mouse activity was analyzed blindly by a person with a good training and the software EthoVision, XT v11.5 provided by the Noldus Information Tech Inc., (Leesburg VA, USA). Exploratory behavior was defined as sniffing, licking, or touching the object while facing the object. Memory was assessed by measuring the novelty preference ratio (i.e., the ratio of time spent exploring the novel object to the time spent exploring both objects). […] Total interaction time with both objects was compared between groups to determine whether the treatments affected locomotor activity or exploration during the testing phase.
Specifically, we studied whether the use of the inhibitory peptide with etomidate prevented etomidate-induced memory deficits (attributed to the increase in cell surface expression of α5GABAA receptors). […] Saline and 35% propylene glycol were used as the vehicle control. NOR was conducted the next day.

[4] = system: etomidate-induced memory deficits in mice; test: Novel object recognition task, prevention paradigm; type: in vivo, mouse; conditions: Etom 8 mg/kg plus α5 peptide 20 mg/kg i.p., NOR next day
Description: The novel object recognition task involves the presentation of two identical objects for visual inspection (in the case of humans and non-human primates) and exploration in the case of rodents. After a delay, one of the original objects is presented together with a new (novel) object. Humans and animals normally spend time more time looking at (or in the case of mice, exploring) the novel object. Indeed, the test relies on the innate preference of humans and animals for novelty. The inspection or interaction time differs only if the familiar object is recognized. Otherwise, the subject spends an equal amount of time inspecting both objects. […]
In the present study, mice were handled two times a day, 5 min each before start of behavioral experiments. Object recognition was assessed in a circle opaque chamber with the diameter of 38.5 cm in a regular lit room. […] Movement and interaction with the objects was recorded with a video camera that was mounted above the chamber. The exploratory behavior and mouse activity was analyzed blindly by a person with a good training and the software EthoVision, XT v11.5 provided by the Noldus Information Tech Inc., (Leesburg VA, USA). […] Memory was assessed by measuring the novelty preference ratio (i.e., the ratio of time spent exploring the novel object to the time spent exploring both objects). […]

α5GABAA receptors = test: Surface biotinylation assay of α5 subunit in ex vivo brain slices after i.p. peptide; design: species or system mouse; conditions: peptide 20 mg/kg, etomidate-treated adult male mice
Description: We next asked whether injection of inhibitory peptide, when administered to mice in vivo by I.P. injection, reduced the level of α5GABAA receptors expressed in the hippocampus. To test whether the peptide reduces α5GABAA receptor cell-surface expression in vivo, we took advantage of a mouse model that we developed recently (Zurek, et al., 2014), in which up-regulation of α5GABAA receptor cell surface expression causes memory deficits. Adult mice (22-25 g) were treated with etomidate (8 mg/kg, i.p.), and sacrificed 24 hrs later according to a protocol approved by the Animal Care Committee of the University of Toronto. The hippocampi were collected and subject to experiments. We first measured the level of radixin phosphorylation, because radixin phosphorylation is required for the recruitment of α5GABAA receptors to extrasynaptic sites of the neurons (Loebrich et al., 2006; Hausrat et al., 2015). The antibody against threonine at 564 of radixin, which is specific for radixin phosphorylation involving α5GABAA receptor extra-synaptic trafficking, was used for these studies (Choii et al., 2015; Hausrat et al., 2015). […] We next examined whether the inhibitory peptide prevented α5GABAA receptor from trafficking to surface membrane in vivo by studying ex vivo brain slices. […]

[5] = system: α5GABAA receptor cell-surface expression; test: Receptor cell-surface ELISA assay in cultured hippocampal neurons; type: cell-based, mouse; conditions: neurons treated with peptide without exposure to etomidate

## NYFTKRGWAWDGKKAL [inhibitory peptide]
[1]
  effects on α2 subunit containing GABAA receptors (gephyrin interaction): did not have any effects
[2]
  etomidate-induced increase in tonic current: reversed
[3]
  effects on α1 subunit containing GABAA receptors (gephyrin interaction): did not have any effects
mice
  Body Angle State Bent: 6 ± 3 s
  Body Angle State Bent (%): 2%
  Body Angle State Straight: 269 ± 45 s
  Body Angle State Straight (%): 98%
  Body Elongation State Contracted: 48 ± 66 s
  Body Elongation State Contracted (%): 16%
  Body Elongation State Normal: 252 ± 66 s
  Body Elongation State Normal (%): 84%
  Body Elongation State Stretched: 0 s
  Rotation Frequency: 5.5 ± 1.7
[4]
  etomidate-induced memory deficits (NOR, prevention): could prevent
α5GABAA receptors
  expression of α5GABAA receptors on the cell surface: selectively prevented
  α5GABAA total protein production: did not change
[5]
  baseline α5GABAA receptors expression, total or cell surface level: does not alter
